Here are results for 48 compounds from PMC5681660, “Reduced hepatitis B and D viral entry using clinically applied drugs as novel inhibitors of the bile acid transporter NTCP” (Scientific Reports, 2017).

Counter-ions that a name gives are not always drawn.

The target in this assay is T1, human NTCP (Homo sapiens, UniProt Q14973).
T1 sequence (Q14973 1-349): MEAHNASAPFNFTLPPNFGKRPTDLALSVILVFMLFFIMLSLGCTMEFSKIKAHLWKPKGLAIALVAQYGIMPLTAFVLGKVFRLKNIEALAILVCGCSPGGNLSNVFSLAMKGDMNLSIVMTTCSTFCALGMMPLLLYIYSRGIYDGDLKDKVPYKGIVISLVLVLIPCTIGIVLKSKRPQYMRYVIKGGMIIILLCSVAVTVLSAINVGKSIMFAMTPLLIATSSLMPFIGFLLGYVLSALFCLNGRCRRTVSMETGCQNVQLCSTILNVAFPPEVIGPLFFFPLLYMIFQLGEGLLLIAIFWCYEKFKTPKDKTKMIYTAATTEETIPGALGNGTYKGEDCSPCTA
Kind of assay: Screening taurocholate uptake assay (96-well, [14C]taurocholate, 10 µM drug). The conditions noted are these: for B-score functional assay: screening taurocholate uptake, 10 µM drug.

Setting [1] is: combined ranking of functional and binding screening assays.
[2] abbreviates: ranking over the functional and the binding screening assay.

Consider `C=C1c2c(Cl)ccc(O)c2C(=O)C2=C(O)[C@]3(O)C(=O)C(C(N)=O)=C(O)[C@@H](N(C)C)[C@@H]3[C@@H](O)[C@H]12.O=C(O)c1cc(S(=O)(=O)O)ccc1O` [Meclocycline sulfosalicylate], for which the B-score functional assay was 0.486. Also, under setting [1], the Ranking score was found to be 647.296.
The like results for `CC(=O)N[C@@H](CS)C(=O)O` [Acetylcysteine] were, in that order, -1.045 and 542.19.
Turning to `CC(C)NCC(O)COc1ccc(COCCOC(C)C)cc1` (stereo not shown) [Bisoprolol fumarate], the B-score functional assay is given as 0.023. The compound also came in with a Ranking score under setting [2] of 263.481.
As to `C[N+](C)(C)CCOC(N)=O` [Carbachol], the B-score functional assay came out at 0.619. Moreover, under setting [1], the Ranking score is on record as 511.9.
In turn, `CCCc1nc2c(C)cc(-c3nc4ccccc4n3C)cc2n1Cc1ccc(-c2ccccc2C(=O)O)cc1` [Telmisartan] came in with a B-score functional assay of -4.106. This compound also came in with a Ranking score under setting [2] of 165.804.
The like results for `CCc1cccc2c3c([nH]c12)C(CC)(CC(=O)O)OCC3` (stereo not shown) [Etodolac] were, in that order, -0.274 and 112.748.
`Clc1ccc(CCC(Cn2ccnc2)Sc2c(Cl)cccc2Cl)cc1` (stereo not shown) [Butoconazole nitrate] yielded a B-score functional assay of -3.692. Under setting [2], this compound came in with a Ranking score of 196.25.
The like results for `CCOC(=O)c1ccc(OC(=O)CCCCCN=C(N)N)cc1.CS(=O)(=O)O` [Gabexate mesilate] were, in that order, 0.072 and 203.005.
`C[C@]12C/C(=C/O)C(=O)C[C@@H]1CC[C@@H]1[C@@H]2CC[C@@]2(C)[C@H]1CC[C@]2(C)O` [Oxymetholone] came in with a B-score functional assay of -1.45. For the same compound, the Ranking score under setting [1] was found to be 467.145.
Compound `c1ccc2c(CC3=NCCN3)cccc2c1` [Naphazoline hydrochloride] registered a B-score functional assay of -2.093. Also, under setting [2], the Ranking score is given as 143.903.
As for `COc1ccc(CCN)cc1OC` [Homoveratrylamine], the B-score functional assay was found to be 0.521. Besides, under setting [1], the Ranking score was found to be 500.783.
As to `CCOC(=O)Nc1ccc2c(c1)N(C(=O)CCN1CCOCC1)c1ccccc1S2` [Moricizine hydrochloride], the Ranking score under setting [1] worked out at 1215.96. The B-score functional assay (B-score) was 2.078.
Compound `Cc1onc(-c2ccccc2Cl)c1C(=O)N[C@@H]1C(=O)N2[C@@H]1SC(C)(C)[C@@H]2C(=O)[O-].[Na+]` [Cloxacillin sodium salt] had a B-score functional assay of 0.027. The compound further came in with a Ranking score under setting [2] of 243.228.
Compound `CN1CCN(c2c(F)cc3c(=O)c(C(=O)O)cn4c3c2SCC4)CC1` [Rufloxacin] had a B-score functional assay of -0.276. Besides, the Ranking score under setting [1] is recorded as 471.137.
`O=C(COc1ccc(Cl)cc1)N1CCN(Cc2ccc3c(c2)OCO3)CC1` [Fipexide hydrochloride]: the B-score functional assay is recorded as -2.118. Besides, under setting [2], the Ranking score worked out at 172.884.
For the compound `O=C(N[C@H](CO)[C@H](O)c1ccc([N+](=O)[O-])cc1)C(Cl)Cl` [Chloramphenicol], the B-score functional assay came to 2.451. Under setting [1], the Ranking score turned out to be 594.757.
`COc1ccc(-c2ccc(=N)n(CCCC(=O)O)n2)cc1` [Gabazine bromide]: the B-score functional assay was -0.231. Under setting [2], the Ranking score is 269.035.
For `COc1cnc(NS(=O)(=O)c2ccc(N)cc2)nc1` [Sulfameter], the B-score functional assay is on record as -1.201. Besides, the Ranking score under setting [1] is reported as 466.613.
`COC(=O)C1=C(C)NC(C)=C(C(=O)OCC(C)C)C1c1ccccc1[N+](=O)[O-]` (stereo not shown) [Nisoldipine] displayed a B-score functional assay of -7.104. This compound also displayed a Ranking score under setting [2] of 25.6905.
With `Cc1cccc(N(C)C(=S)Oc2ccc3ccccc3c2)c1` [Tolnaftate], the B-score functional assay is given as 6.72. The Ranking score under setting [1] is listed as 550.781.
The compound `CC(=O)OCC(=O)[C@@]12OC(C)(C)O[C@@H]1C[C@H]1[C@@H]3C[C@H](F)C4=CC(=O)C=C[C@]4(C)[C@@]3(F)[C@@H](O)C[C@@]12C` [Fluocinonide] had a B-score functional assay of 0.319. Moreover, the Ranking score under setting [1] is on record as 619.745.
Regarding `C=CC1=C(C(=O)O)N2C(=O)[C@@H](NC(=O)/C(=N\OCC(=O)O)c3csc(N)n3)[C@H]2SC1` [Cefixime], the B-score functional assay is on record as -2.268. The compound further returned a Ranking score under setting [2] of 185.952.
In turn, `CNCCc1ccccn1.CS(=O)(=O)O.CS(=O)(=O)O` [Betahistine mesylate] came in with a B-score functional assay of -5.129. This compound also displayed a Ranking score under setting [2] of 145.348.
The like results for `NCCc1c[nH]c2ccc(O)cc12` [Serotonin hydrochloride] were, in that order, 0.952 and 107.778.
In turn, `CN(C)CCN(Cc1ccccc1)c1ccccn1` [Tripelennamine hydrochloride] registered a B-score functional assay of -0.493. For the same compound, the Ranking score under setting [1] turned out to be 512.348.
Turning to `CC(=O)OC1CN2CCC1CC2` (stereo not shown) [Aceclidine Hydrochloride], the B-score functional assay is -1.773. For the same compound, under setting [2], the Ranking score was 189.214.
With `C=CC[C@]1(O)CC[C@H]2[C@@H]3CCC4=CC(=O)CCC4=C3C=C[C@@]21C` [Altrenogest], the B-score functional assay is reported as 0.332. Moreover, the Ranking score under setting [1] was determined as 607.028.
Consider `CC(=O)[C@@]12O[C@](C)(c3ccccc3)O[C@@H]1C[C@H]1[C@@H]3CCC4=CC(=O)CC[C@]4(C)[C@H]3CC[C@@]12C` [Algestone acetophenide], for which the B-score functional assay is -2.799. The compound further came in with a Ranking score under setting [2] of 142.566.
For `NC(=NCc1ccccc1)NC(=O)c1nc(Cl)c(N)nc1N` [Benzamil hydrochloride], the B-score functional assay is given as -0.089. Moreover, under setting [1], the Ranking score worked out at 519.299.
Turning to `NC(=O)OCC(O)COc1ccc(Cl)cc1` (stereo not shown) [Chlorphensin carbamate], under setting [1], the Ranking score is recorded as 1211.24. The same compound registered a B-score functional assay (B-score) of 3.271.
`CN(C(=O)C(Cl)Cl)c1ccc(OC(=O)c2ccco2)cc1` [Diloxanide furoate]: under setting [1], the Ranking score was 1159.98. This compound also showed a B-score functional assay (B-score) of 1.688.
The compound `CN(C)CCCN1c2ccccc2Sc2ccc(Cl)cc21` [Chlorpromazine hydrochloride] came in with a B-score functional assay of 1.542. Moreover, under setting [2], the Ranking score is 173.367.
On to `CC(CN(C)C)CN1c2ccccc2CCc2ccccc21.O=C(O)/C=C\C(=O)O` (stereo not shown) [Trimipramine maleate salt], for which the B-score functional assay is -0.962. This compound showed a Ranking score under setting [2] of 129.248.
`Nc1ccc(S(=O)(=O)Nc2ccc(Cl)nn2)cc1` [Sulfachloropyridazine]: the B-score functional assay is 0.615. For the same compound, the Ranking score under setting [1] amounted to 530.669.
With Colistin sulfate, the B-score functional assay is given as -0.917.
`CC1CCc2c(N3CCC(O)CC3)c(F)cc3c(=O)c(C(=O)O)cn1c23` (stereo not shown) [Nadifloxacin]: the Ranking score under setting [1] was 1251.94. The compound further showed a B-score functional assay (B-score) of 3.94.
Take `COc1ccccc1OCC(O)CN1CCN(CC(=O)Nc2c(C)cccc2C)CC1` (stereo not shown) [Ranolazine]: the B-score functional assay is on record as 1.748. For the same compound, under setting [1], the Ranking score came out at 603.017.
For `CN(C)C(=O)Oc1ccc[n+](C)c1.[I-]` [Pyridostigmine iodide], under setting [1], the Ranking score amounted to 1177.01. The B-score functional assay (B-score) is on record as 1.154.
`Cc1cc(=O)n(-c2ccccc2)n1C` [Antipyrine] had a B-score functional assay of -1.958. For the same compound, the Ranking score under setting [2] came out at 172.864.
As for `O=C1[C@H](CC[C@H](O)c2ccc(F)cc2)[C@@H](c2ccc(O)cc2)N1c1ccc(F)cc1` [ezetimibe, reference compound], the B-score functional assay is reported as -4.28. Where the note is “10 µM, both screening assays”, the “NTCP inhibition in the screen (in words)” value is listed as “confirmed NTCP inhibition”. Moreover, for the setting “1280 drugs at 10 µM, TC uptake and Myrcludex B binding screens combined”, the “position among the hits of the screen (combined ranking of both screening assays)” value is reported as no more than 150. Under setting [2], this compound showed a Ranking score of 30.4959.
In the case of `Cn1cnc2c1c(=O)[nH]c(=O)n2C` [Theobromine], the B-score functional assay is recorded as -0.75. The Ranking score under setting [1] is 527.693.
The compound `CCn1cc(C(=O)[O-])c(=O)c2ccc(C)nc21.[Na+]` [Nalidixic acid sodium salt] returned a B-score functional assay of -0.033. In addition, the Ranking score under setting [1] stood at 500.32.
The like results for `C=C1CC[C@@]2(O)[C@H]3Cc4ccc(O)c5c4[C@@]2(CCN3CC2CC2)[C@H]1O5` [Nalmefene hydrochloride] were, in that order, 0.055 and 642.564.
The like results for `CN1[C@@H]2CC[C@H]1C[C@@H](OC(=O)c1c[nH]c3ccccc13)C2` [Tropisetron HCl] were, in that order, -1.094 and 543.985.
The like results for `COc1ccc(OC)c(C(O)C(C)N)c1` (stereo not shown) [Methoxamine hydrochloride] were, in that order, -0.662 and 647.236.
Compound `OCCOCCN1CCN(C2=Nc3ccccc3Sc3ccccc32)CC1` [Quetiapine hemifumarate] returned a B-score functional assay of -0.346. Further, the Ranking score under setting [1] is 473.772.
Compound `CC[N+](CC)(CC)CCOc1cccc(OCC[N+](CC)(CC)CC)c1OCC[N+](CC)(CC)CC` [Gallamine triethiodide] had a B-score functional assay of 3.679. In addition, the Ranking score under setting [1] came to 565.721.
As for `Clc1ccc(COC(Cn2ccnc2)c2ccc(Cl)cc2Cl)cc1` (stereo not shown) [Econazole nitrate], the B-score functional assay is reported as -2.794. Also, the Ranking score under setting [2] worked out at 155.949.
